Measured values from PubChem BioAssay (NCI).
“And” between values parts separate entries of the source, which are not always exact repeats. Equal entries are not always repeated.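 Each compound was tested at five concentrations against cells in 96-well plates for 48 hours. GI50 marks 50% less growth. TGI: concentration producing complete growth inhibition.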

How the values were obtained:
Test in all cases: NCI tumour cell line growth inhibition, 48 h
[1] = system: DU-145 prostate
[2] = system: SF-539 CNS
[3] = system: RXF 393 renal
[4] = system: EKVX NSCLC
[5] = system: OVCAR-4 ovarian
[6] = system: U251 CNS
[7] = system: SNB-75 CNS
[8] = system: COLO 205 colon
[9] = system: SK-OV-3 ovarian
[10] = system: TK-10 renal

| Structure (SMILES) | GI50 [1] [µM] | TGI [1] [µM] | GI50 [2] [µM] | TGI [2] | GI50 [3] [µM] | TGI [3] [µM] | GI50 [4] [µM] | TGI [4] [µM] | GI50 [5] [µM] | TGI [5] [µM] | GI50 [6] [µM] | TGI [6] [µM] | GI50 [7] [µM] | TGI [7] [µM] | GI50 [8] [µM] | TGI [8] | GI50 [9] [µM] | TGI [9] [µM] | GI50 [10] [µM] | TGI [10] [µM] |
| --- | --- | --- | --- | --- | --- | --- | --- | --- | --- | --- | --- | --- | --- | --- | --- | --- | --- | --- | --- | --- |
| CN1CCN(c2nc(NCCCCNc3ccnc4cc(Cl)ccc34)c3ccccc3n2)CC1 | 7 | 21.7 | 1.62 | 3.25 µM | 1.74 | 3.45 | 16.4 | 40.7 | 2.14 | 6.99 | 3.27 | 10.1 | 2.16 | 10 | 2.1 | 5.46 µM | 18 | 41.2 | 1.85 | 4.69 |
| Cc1nc2cnc3cc(F)c(-c4ccc(Oc5ncccn5)cc4Cl)cc3c2n1[C@H]1CCN(C(=O)CO)C[C@@H]1F | 4.36 | > 100 | 3.03 | 16.9 µM | 2.02 | 10.9 | 3.23 | > 95.5 | 20.8 | > 83.9 | 5.91 | > 100 | 12 | 36.2 | 0.0229 | 1.68 µM | 3.93 | > 100 | 1.76 | 36 |
| O=C(/C=C/c1cccs1)c1ccc(Nc2nc(Nc3ccc(F)cc3)nc(Nc3ccc(F)cc3)n2)cc1 | 52.7 | > 100 | 17.8 | 35.7 µM | 23.3 | 75.1 | 34.3 | > 100 | 17.7 | 46.2 | 18.3 | 35.4 | 22.5 | 70.4 | 12.5 | 80.2 µM | 56 | > 100 | 40.4 | > 100 |
| CC(C)[C@@]12C[C@@H](OC(=O)COC(=O)/C=C/c3ccccc3)[C@@](C)(O1)[C@@H]1CC[C@@H](C)[C@H]1[C@@H]2OC(=O)/C=C/c1ccccc1 | > 100 | > 100 | > 100 | > 100 µM | 0.618 | > 100 | > 100 | > 100 | > 100 | > 100 | > 100 | > 100 | > 100 | > 100 | > 100 | > 100 µM | > 100 | > 100 | > 100 | > 100 |
| COc1ccc2c(c1)c(-c1nc(-c3c[nH]c4ncccc34)cs1)cn2CCCCN1CCOCC1 | 3.07 | 9.76 | 1.67 | 3.11 µM | 1.73 | 3.38 | 2.66 | 9.69 | 2.21 | 5.53 | 1.73 | 3.33 | 1.31 | 2.85 | 1.85 | 3.58 µM | 2.37 | 5.27 | 5.25 | 18 |
| COc1cc(C(O)c2nc3ccccc3s2)cc(OC)c1OC (stereo not drawn) | > 100 | > 100 | > 100 | > 100 µM | > 100 | > 100 | 2.83 | > 100 | 30.9 | > 100 | > 100 | > 100 | 33.2 | > 100 | > 100 | > 100 µM | > 100 | > 100 | 47.3 | > 100 |
| Cn1ccnc1C(=O)/C=C/c1ccc(CC(=O)Nc2ccc(S(F)(F)(F)(F)F)cc2)cc1 | 2.25 | 4.53 | 1.02 | 3.26 µM | 2.67 | 5.21 | 2.84 | 8.23 | 2.35 | 9.07 | 0.898 | 3.07 | 1.83 | 3.88 | 3.08 | 6.66 µM | 3.86 | 11.6 | 4.05 | 9.5 |
| O=C1c2ccc3c4c5ccc(c24)C(=O)N1CCCOCCCCOCCCNCc1ccc(cc1)CNCCCOCCCCOCCCN(C3=O)C5=O | 0.886 | 1.73 | 0.871 | 1.64 µM | 0.764 | 1.57 | 0.824 | 1.63 | 0.567 | 1.18 | 0.832 | 1.64 | 0.724 | 1.48 | 0.531 | 1.26 µM | 1.18 | 2.66 | 1.03 | 2.42 |
| C=CC1=C[C@@H]2[C@@H]3O[C@]4(CC[C@H](O4)[C@@H](C)C[C@@H](O)C3=O)C[C@H](O)C3=NCC[C@@]32CC1 | < 0.00333 | 0.00335 | < 0.00333 | < 0.00333 µM | < 0.00333 | < 0.00333 | < 0.00333 | 0.00345 | < 0.00333 | 0.00522 | < 0.00333 | 0.39 | < 0.00333 | < 0.00333 | < 0.00333 | < 0.00333 µM | < 0.00333 | 0.00795 | < 0.00333 | 0.00385 |
| NC1=C(Br)C(=O)c2ncccc2C1=O | 0.709 | 2.14 | – | 0.629 µM | – | 1.32 | – | 3.02 | – | 2.49 | – | 0.671 | – | 0.664 | – | 3.18 µM | – | 3.24 | – | 5.81 |
| COC1(O)C(=O)c2ccccc2OC1(OC)c1ccccc1 (stereo not drawn) | – | > 100 | – | > 100 µM | – | > 100 | – | > 100 | – | > 100 | – | > 100 | – | > 100 | – | > 100 µM | – | – | – | > 100 |
| O=C(CCCCCCSc1nc(-c2ccccc2)cc(-c2ccccc2)n1)NO | 2.44 | 10.6 | 2.43 | 10 µM | 1.72 | 4.42 | 3.96 | 17.2 | 3.05 | 16.7 | 1.51 | 4.08 | 1.7 | 14 | 2.67 | 10.7 µM | 2.42 | 8.84 | 2.51 | 13.5 |
| COc1ccn2c(C(C)=O)cc(C(=O)c3ccc4c(c3)Sc3ccccc3N4)c2c1 | 0.122 | > 100 | 0.0654 | 0.206 µM | 0.228 | > 100 | 0.183 | > 100 | – | > 100 | 0.132 | > 100 | 0.0714 | > 100 | 0.0724 | 0.183 µM | 0.124 | > 23.5 | 0.34 | > 100 |
| Nc1ncnc2c1ncn2CC(O)C(=O)O (stereo not drawn) | – | > 100 | – | > 100 µM | – | > 100 | – | > 100 | – | > 100 | – | > 100 | – | > 100 | – | > 100 µM | – | > 100 | – | > 100 |
| N#Cc1c(N)nc(N2CCOCC2)c(C#N)c1-c1ccc(Cl)cc1 | 75 | > 100 | 49 | > 100 µM | 0.475 | 45.1 | 22.5 | > 100 | 29.8 | > 100 | 38.3 | > 100 | 14.5 | 55.9 | 48.5 | > 100 µM | 47.2 | > 100 | – | – |
| CC(CN1CCN(C)CC1)CN1c2ccccc2Sc2ccc(C(F)(F)F)cc21 (stereo not drawn) | 2.8 | 6.99 | 1.67 | 3.59 µM | 1.64 | 3.03 | 2.1 | 5.38 | 2.16 | 4.4 | 1.68 | 3.12 | 2.21 | 7.85 | 1.89 | 3.65 µM | – | – | 1.85 | 3.3 |
| O=C1CC(c2ccc3c(c2)OCO3)Nc2cc3c(cc21)OCO3 (stereo not drawn) | 0.405 | 14.7 | 0.301 | 1.2 µM | 0.343 | 4.44 | 1.93 | 72.6 | 1.04 | > 100 | 0.544 | > 100 | – | – | 0.282 | 0.885 µM | 0.485 | 44.2 | 2.77 | > 100 |
| Cc1nn(-c2ccccc2)c2c1CC(=O)Nc1ccccc1-2 | 0.355 | > 100 | 0.173 | 7.8 µM and 0.855 µM | – | 5.85 | – | – | – | > 100 | 0.282 | > 100 | 0.21 | – | 0.318 | 4.84 µM and 1.99 µM | 0.332 | 43.8 | – | 92.2 |
| CCCCCCC#Cc1ccccc1C#CCO | 17.7 | 36.3 | 19 | 35.6 µM | 16.6 | 32.9 | 21.9 | 50.6 | 24.5 | 81.6 | 16.4 | 34.6 | – | – | 17.2 | 34 µM | 18.4 | 34.4 | 22.6 | 61.4 |
| Cn1c(=O)c(Oc2ccc(F)cc2F)cc2cnc(NC(CO)CO)nc21 | > 25 | > 25 | > 25 | > 25 µM | > 25 | > 25 | – | – | > 25 | > 25 | > 25 | > 25 | > 25 | > 25 | > 25 | > 25 µM | > 25 | > 25 | > 25 | > 25 |
